# In EPA's ToxRefDB 2:
# Legend:
# rat [1] = conditions: Sub-acute repeat dose toxicity; Oral; Gavage/Intubation; dose end: 7 day; group: systemic; systemic / clinical chemistry / cholesterol / cholesterol + systemic / clinical chemistry / gamma glutamyl transferase (ggt) / gamma …
# mouse [2] = conditions: Sub-acute repeat dose toxicity, Oral, Gavage/Intubation, dose end: 7 day, group: systemic
# dog [3] = conditions: Subchronic oral toxicity in nonrodent, beagle, Gavage/Intubation, dose end: 90 day, group: systemic
# dog [4] = conditions: Sub-acute repeat dose toxicity; beagle; Oral; Gavage/Intubation; dose end: 14 day; group: systemic; systemic / in life observation / clinical signs / emesis + systemic / in life observation / clinical signs / salivation + systemic / in life…
# dog [5] = conditions: Sub-acute repeat dose toxicity, beagle, Oral, Gavage/Intubation, dose end: 7 day, group: systemic
# mouse [6] = conditions: Fertility (Segment I), Oral, Gavage/Intubation, dose end: 1 generation
# rat [7] = conditions: Sub-acute repeat dose toxicity; Oral; Gavage/Intubation; dose end: 7 day; group: systemic; systemic / organ weight / adrenal gland / absolute + systemic / organ weight / liver / absolute + systemic / pathology microscopic / kidney…
# rabbit [8] = conditions: Sub-acute repeat dose toxicity, Oral, Gavage/Intubation, dose end: 7 day, group: systemic
# mouse [9] = conditions: Sub-acute repeat dose toxicity; Oral; Feed; dose end: 14 day; group: systemic; systemic / in life observation / clinical signs / [other] + systemic / in life observation / clinical signs / anogenital staining + systemic…
# rabbit [10] = conditions: Prenatal developmental toxicity study, Oral, Gavage/Intubation, dose end: 19 GD
# mouse [11] = conditions: Sub-acute repeat dose toxicity, Oral, Gavage/Intubation, dose end: 7 day, group: systemic; remark: listed apart in the source
# rat [12] = conditions: Chronic toxicity, sprague dawley, Oral, Gavage/Intubation, dose end: 6 month, group: systemic
# dog [13] = conditions: Chronic toxicity; beagle; Oral; Capsule; dose end: 1 year; group: systemic; systemic / in life observation / body weight / body weight + systemic / in life observation / clinical signs / vomitting + systemic / in …
# mouse [14] = conditions: Sub-acute repeat dose toxicity, cd1, Oral, Gavage/Intubation, dose end: 4 week, group: systemic
# rat [15] = conditions: Chronic toxicity; sprague dawley; Oral; Gavage/Intubation; dose end: 6 month; group: systemic; systemic / clinical chemistry / alanine aminotransferase (alt/sgpt) / alanine aminotransferase (alt/sgpt) + systemic / clinical chemistry / …
# rat [16] = conditions: Prenatal developmental toxicity study, sprague dawley, Oral, Gavage/Intubation, dose end: 17 GD
# dog [17] = conditions: Chronic toxicity; beagle; Oral; Capsule; dose end: 6 month; group: systemic; systemic / clinical chemistry / potassium / potassium + systemic / in life observation / body weight / body weight + systemic / in life …
# rat [18] = conditions: Fertility (Segment I), sprague dawley, Oral, Gavage/Intubation, dose end: 7 GD
# [19] = systemic / clinical chemistry / cholesterol / cholesterol + systemic / pathology microscopic / liver / vacuolization + systemic / clinical …
# [20] = systemic / clinical chemistry / alanine aminotransferase (alt/sgpt) / alanine aminotransferase (alt/sgpt) + systemic / clinical chemistry / …
# [21] = systemic / clinical chemistry / alkaline phosphatase (alp/alk) / alkaline phosphatase (alp/alk)
# [22] = systemic / clinical chemistry / alanine aminotransferase (alt/sgpt) / alanine aminotransferase (alt/sgpt) + systemic / pathology microscopic…
# [23] = systemic / clinical chemistry / alkaline phosphatase (alp/alk) / alkaline phosphatase (alp/alk) + systemic / clinical chemistry / …
# [24] = group: maternal, reproductive / reproductive performance / mating / mating + reproductive / reproductive performance / precoital interval / precoital …
# [25] = group: parental, systemic / in life observation / body weight / body weight gain
# [26] = systemic / in life observation / body weight / body weight + systemic / in life observation / clinical signs / tachypnea + systemic / in …
# [27] = systemic / clinical chemistry / creatinine / creatinine + systemic / clinical chemistry / potassium / potassium + systemic / in life …
# [28] = systemic / organ weight / liver / absolute
# [29] = systemic / clinical chemistry / albumin / albumin + systemic / clinical chemistry / alkaline phosphatase (alp/alk) / alkaline phosphatase (…
# [30] = systemic / clinical chemistry / albumin / albumin + systemic / clinical chemistry / aspartate aminotransferase (ast/sgot) / aspartate …
# [31] = systemic / in life observation / clinical signs / alopecia + systemic / in life observation / clinical signs / scabbing + systemic / organ …
# [32] = systemic / organ weight / liver / absolute + systemic / organ weight / liver / relative to body weight + systemic / pathology gross / lung…
# [33] = group: developmental, systemic / in life observation / body weight / fetal weight
# [34] = group: maternal, reproductive / reproductive performance / implantations / implantations + reproductive / reproductive performance / postimplantation loss / …
# [35] = group: maternal, systemic / in life observation / body weight / body weight + systemic / in life observation / clinical signs / piloerection + systemic / in …
# [36] = group: maternal, reproductive / reproductive performance / estrous cycle / abnormal + reproductive / reproductive performance / estrous cycle / corpora lutea…
# [37] = group: maternal, reproductive / reproductive performance / implantations / implantations
# [38] = group: parental, systemic / in life observation / body weight / body weight gain + systemic / in life observation / clinical signs / abnormal respiratory …
structure (smiles),measurement,setting,value
CCc1nn(CCO)c(CC)c1Oc1cc(C#N)cc(C#N)c1 [Lersivirine],LOAEL,rat [1],> 35 mg/kg/day
same,NEL,rat [1],< 35 mg/kg/day
same,NOAEL,rat [1],≥ 35 mg/kg/day
same,LOAEL,mouse [2]; [19],> 250 mg/kg/day
same,NOAEL,mouse [2]; [19],≥ 250 mg/kg/day
same,NEL,mouse [2]; systemic / organ weight / liver / absolute + systemic / pathology microscopic / liver / hypertrophy,< 35 mg/kg/day
same,LOAEL,dog [3]; [20],> 60 mg/kg/day
same,NOAEL,dog [3]; [20],≥ 60 mg/kg/day
same,LEL,dog [3]; [21],7 mg/kg/day
same,NEL,dog [3]; [21],< 7 mg/kg/day
same,LEL,dog [4],5 mg/kg/day
same,LOAEL,dog [4],> 150 mg/kg/day
same,NEL,dog [4],< 5 mg/kg/day
same,NOAEL,dog [4],≥ 150 mg/kg/day
same,LOAEL,dog [5]; [22],> 150 mg/kg/day
same,NOAEL,dog [5]; [22],≥ 150 mg/kg/day
same,LEL,dog [5]; [23],10 mg/kg/day
same,NEL,dog [5]; [23],< 10 mg/kg/day
same,LEL,mouse [6]; [24],700 mg/kg/day
same,LOAEL,mouse [6]; [24],> 700 mg/kg/day
same,NEL,mouse [6]; [24],200 mg/kg/day
same,NOAEL,mouse [6]; [24],≥ 700 mg/kg/day
same,LEL,mouse [6]; [25],200 mg/kg/day
same,LOAEL,mouse [6]; [25],> 700 mg/kg/day
same,NEL,mouse [6]; [25],70 mg/kg/day
same,NOAEL,mouse [6]; [25],≥ 700 mg/kg/day
same,LOAEL,rat [7],> 35 mg/kg/day
same,NEL,rat [7],< 35 mg/kg/day
same,NOAEL,rat [7],≥ 35 mg/kg/day
same,LOAEL,rabbit [8]; [26],> 500 mg/kg/day
same,NEL,rabbit [8]; [26],20 mg/kg/day
same,NOAEL,rabbit [8]; [26],≥ 500 mg/kg/day
same,LEL,rabbit [8]; systemic / in life observation / clinical signs / tachypnea + systemic / in life observation / food consumption / food consumption,200 mg/kg/day
same,LOAEL,mouse [9],> 3000 mg/kg/day
same,NEL,mouse [9],750 mg/kg/day
same,NOAEL,mouse [9],≥ 3000 mg/kg/day
same,NEL,"rabbit [10]; group: developmental, developmental / developmental malformation / bone / absent + developmental / developmental malformation / bone / fused",250 mg/kg/day
same,NEL,"rabbit [10]; group: maternal, reproductive / reproductive performance / postimplantation loss / postimplantation loss",< 100 mg/kg/day
same,LOAEL,mouse [11]; [27],> 750 mg/kg/day
same,NOAEL,mouse [11]; [27],≥ 750 mg/kg/day
same,LEL,mouse [11]; [28],70 mg/kg/day
same,NEL,mouse [11]; [28],< 70 mg/kg/day
CCc1c(C(=O)NN2CCCCC2)nn(-c2ccc(Cl)cc2Cl)c1-c1ccc(Br)cc1 [Surinabant],LOAEL,rat [12]; [29],> 100 mg/kg/day
same,NOAEL,rat [12]; [29],≥ 100 mg/kg/day
same,LEL,rat [12]; [30],10 mg/kg/day
same,NEL,rat [12]; [30],< 10 mg/kg/day
same,LEL,dog [13],1 mg/kg/day
same,LOAEL,dog [13],1 mg/kg/day
same,NEL,dog [13],< 1 mg/kg/day
same,NOAEL,dog [13],< 1 mg/kg/day
same,LOAEL,mouse [14]; [31],> 4000 mg/kg/day
same,NOAEL,mouse [14]; [31],≥ 4000 mg/kg/day
same,LEL,mouse [14]; [32],1000 mg/kg/day
same,NEL,mouse [14]; [32],< 1000 mg/kg/day
same,LEL,rat [15],30 mg/kg/day
same,LOAEL,rat [15],> 60 mg/kg/day
same,NEL,rat [15],< 30 mg/kg/day
same,NOAEL,rat [15],≥ 60 mg/kg/day
same,LEL,rat [16]; [33],100 mg/kg/day
same,LOAEL,rat [16]; [33],100 mg/kg/day
same,NEL,rat [16]; [33],10 mg/kg/day
same,NOAEL,rat [16]; [33],10 mg/kg/day
same,LOAEL,rat [16]; [34],100 mg/kg/day
same,NOAEL,rat [16]; [34],10 mg/kg/day
same,LEL,rat [16]; [35],10 mg/kg/day
same,NEL,rat [16]; [35],< 10 mg/kg/day
same,LEL,dog [17],1.5 mg/kg/day
same,LOAEL,dog [17],1.5 mg/kg/day
same,NEL,dog [17],< 1.5 mg/kg/day
same,NOAEL,dog [17],< 1.5 mg/kg/day
same,LOAEL,rat [18]; [36],50 mg/kg/day
same,NOAEL,rat [18]; [36],10 mg/kg/day
same,LEL,rat [18]; [37],10 mg/kg/day
same,NEL,rat [18]; [37],< 10 mg/kg/day
same,LEL,rat [18]; [38],10 mg/kg/day
same,LOAEL,rat [18]; [38],> 100 mg/kg/day
same,NEL,rat [18]; [38],< 10 mg/kg/day
same,NOAEL,rat [18]; [38],≥ 100 mg/kg/day
